Laboratory results as given in patent publication US20090118301A1, “Compositions and Methods for Treating Cancer” (Arbor Vita Corporation, priority 2007, published 2009).

How the values were obtained:
[1] = target: T1, MAGI-1 PDZ domain 1 (interaction with HPV E6 protein) (Homo sapiens, UniProt Q96QZ7); assay: matrix/array PDZ/PL competition assay, titration, Magi1 d1; type: binding; conditions: compared with the other PDZ domains and compounds of Table 1
T1 construct: MAGI-1 PDZ domain 1 was used as a target for rational drug design
T1 sequence (Q96QZ7 472-554 limits assumed): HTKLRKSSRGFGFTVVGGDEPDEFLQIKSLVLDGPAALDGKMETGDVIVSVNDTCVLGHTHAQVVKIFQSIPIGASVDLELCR
Protocol: The best hits from in silico screening were subject to screening in a matrix/array competition assay format, i.e., assays where docking of ligands to solid phase PDZ domain in fusion proteins was assessed in the presence and absence of the small molecule competitor as described elsewhere. The compounds were screened for inhibition of the PDZ/PL interactions.
The small molecules were considered as hits based on the OD450 readout of the assay. The best of the hits in this analysis were then subject to titration binding studies, i.e., titration of compounds in the same competition assay to estimate the IC50 value.

3Y1 pBlast-E6-16 cells [2] = assay: cell migration assay (96-well filter plate); type: cell-based, rat; conditions: 40 μM, 24 hours, OD560; compared with 3Y1 pBlast E6-16 ΔPL cells
Protocol: The effect of compound 7291-0042 on the rate of cell migration and proliferation was determined on three different cell lines, 3Y1 pBlast, 3Y1 pBlast-E6-16 and 3Y1 pBlast E6-16 ΔPL.
Plasmid constructs of HPV E6-16 (wild type) and HPV E6-16 ΔPL were generated using the vector pBlast (InvivoGen, Toulouse, France). Recombinant plasmids were generated by recombinant DNA cloning methods known in the art.
These constructs were transfected into rat 3Y1 primary cells using the LipofectAMINE™ 2000 Reagent (Invitrogen Cat#11668-027) and accompanying protocol. pBlast without insert was transfected as a negative control. Cells were incubated at 37° in RPMI media with non-essential amino acids, 10% FBS, and 1 ug/mL […] until confluent (about 4 days).
Each of the three transfected cell lines were seeded onto a 96-well filter plate with a feeder tray and lid in RPMI media with a gradient of 0.5% to 10% FBS and non-essential amino acids. Three different treatments were applied to the cell lines. The cells were treated with either 40 μM or 60 μM of the compound 7291-0042, or DMSO. […] The undersides of the filters were left uncoated. […] Cell migration through the membrane was quantified by staining the cells that attach to the lower side of the membrane with a colorometric dye at OD560 after 24 hours with a microplate reader.

3Y1 pBlast-E6-16 cells [3] = assay: cell proliferation assay; type: cell-based, rat; conditions: 40 μM; compared with 3Y1 pBlast E6-16 ΔPL and 3Y1 pBlast
Protocol: Compound 7291-0042 was further analyzed for its ability to block the development of other cancerous characteristics in cells by a cell proliferation assay. The three cell lines described in the Example 2 were seeded onto a 12-well plate, and allowed to adhere and grow to confluent (about 24 hours) in EMEM media with 10% FBS and non-essential amino acids. 100 μl of compound 7291-0042 at concentrations 0 μM, 20 μM, 40 μM, and 80 μM was applied to the cells. The cells were measured at 24, 48, 72 and 96 hours after addition of the compound.

SiHa cells = assay: WST-1 cytotoxicity assay, SiHa; type: cell-based; conditions: 60 μM, HPV-positive cervical cancer cell line
Protocol: (§1) To determine the cytotoxicity of the compound 7291-0042, drug toxicity studies were performed in HPV-positive (E6 transformed) cervical cancer cell lines SiHa and HeLa and HPV-negative cervical cancer cell line […]. […] and SiHa cells were seeded onto a 12-well plate, allowed to adhere and grown to 10,000 cells per well. HeLa cells were seeded, allowed to adhere and grown to 5,000 cells per well. 100 μl of compound 7291-0042 at a concentration of 60 μM or DMSO was added to the cells 24 hours after plating. Cytotoxicity of the cells was assessed by the WST-1 calorimetric assay. In brief, the calorimetric assay is based on the cleavage of the tetrazolium salt WST-1 to a formazan-class dye by mitochondrial succinate-tetrazolium reductase in viable cells. As the cells proliferate, more WST-1 is converted to the formazan product. The quantity of formazan dye is directly related to the number of metabolically active cells, and can be quantified by measuring the absorbance at 420-480 nm (Amax 450 nm) in a multiwell plate reader.

HeLa cells [4] = assay: WST-1 cytotoxicity assay, HeLa; type: cell-based; conditions: 60 μM, HPV-positive cervical cancer cell line
Protocol: as §1

C33a cells [5] = assay: WST-1 cytotoxicity assay, C33a; type: cell-based; conditions: 60 μM, HPV-negative cervical cancer cell line
Protocol: as §1

E6 protein (HPV18-E6) = assay: E6 oncoprotein expression by Western blot in HeLa cells; type: cell-based; conditions: 60-120 μM, 24 hours, vs DMSO control and untreated cells
Protocol: To determine whether the compound 7291-0042 has an effect on E6 protein expression, cervical cancer cell line HeLa was used. HeLa cells were seeded, allowed to adhere and grown to 0.5×10^6 cells per well. Compound 7291-0042 at a concentration of 60 μM, 80 μM, 100 μM, 120 μM, or DMSO was added to the cells 24 hours after plating and incubated for 24 hours. Cells that were untreated served as an additional control. Western blot was performed to determine the relative amounts of the E6 protein present in the different samples. Briefly, the cells were homogenized in a lysate buffer and the protein samples were separated using SDS-PAGE and transferred to a membrane for detection. The membrane was incubated with an anti-HPV18-E6 antibody, labeled with a secondary antibody-enzyme conjugate and detected. To ensure that the amount of protein loaded for each sample was similar, the membrane was stripped and labeled with an antibody that recognizes a protein encoding a housekeeping gene. For this experiment, an antibody against glyceraldehyde-3-phosphate dehydrogenase (GAPDH) was used.

[6] = system: p53 tumor suppressor protein; assay: p53 protein expression by immunocytochemistry in HeLa cells; type: cell-based; conditions: 80-120 μM, 24 hours, vs DMSO control
Protocol: To determine whether the compound 7291-0042 has an effect on p53 protein expression, cervical cancer cell line HeLa was used. HeLa cells were seeded, allowed to adhere and grown to 0.5×10^6 cells per well. 1 ml of compound 7291-0042 at a concentration of 80 μM, 100 μM, 120 μM, or DMSO was added to the cells 24 hours after plating and incubated for 24 hours. Immunocytochemistry with anti-p53 monoclonal antibody was performed to determine the relative amounts of the p53 protein present in the different cell samples.

HeLa cells [7] = assay: TUNEL apoptosis assay, HeLa; type: cell-based; conditions: 120 M (so in the source), 48 hours, flow cytometry
Protocol: (§2) To determine whether the compound 7291-0042 induces apoptosis in HPV-positive cervical cancer cell lines, HeLa cells and the HPV-negative cell line C33A were used. HeLa and C33A cells were seeded at 1-2×10^6 in 10-cm dishes and allowed to adhere and grow to 80-90% confluency. Compound 7291-0042 at a concentration of 60 μM, 80 μM, 100 μM, 120 μM, or DMSO was added to the cells 24 hours after plating and incubated for 48 hours. TUNEL assay was performed for the specific quantitation of apoptotic cells within a cell population using the DeadEnd Fluorometric TUNEL System from Promega (Madison, Wis.). Briefly, the cells were harvested by trypsinization and washed in PBS. Cells were then fixed in 4% formalin and incubated in buffer containing nucleotides and rTdT enzyme for 1 hour at 37° C. After terminating the reaction by adding EDTA, cells were washed with PBS and permeabilized with Triton X-100 and propidium iodide was added to stain all the cells. Cells were then analyzed by flow cytometery. Apoptosis signal was quantified by measuring green fluorescence of fluorescein-12-dUTP at 520±20 nm and red fluorescence of propidium iodide at >620 nm.

C33a cells [8] = assay: TUNEL apoptosis assay, C33A; type: cell-based; conditions: 120 M (so in the source), 48 hours, flow cytometry
Protocol: as §2

Compound: CCc1cccc2c(C(c3ccccc3OCC(=O)O)c3c[nH]c4c(CC)cccc34)c[nH]c12 [7291-0042]
- specificity of disruption of the interaction between HPV E6 protein and MAGI-1 PDZ1 [1]: greatest specificity
- rate of cell migration (3Y1 pBlast-E6-16 cells [2]): restored baseline cell migration
- rate of cell proliferation (3Y1 pBlast-E6-16 cells [3]): restored baseline rate of cell proliferation
- cytotoxicity, SiHa cells (SiHa cells): selectively killed
- cytotoxicity, HeLa cells (HeLa cells [4]): selectively killed
- cytotoxicity, C33a cells (C33a cells [5]): remained viable
- amount of E6 onco protein (E6 protein (HPV18-E6)): decreased
- amount of p53 tumor suppressor protein [6]: increased
- apoptotic cells, HeLa (HeLa cells [7]): 20%
- apoptotic cells, C33A (C33a cells [8]): 4%
